In US10751396B2, “Early hyperlipidemia promotes endothelial activation via a caspase-1-sirtuin 1 pathway” (Temple University—Of The Commonwealth System of Higher …, priority 2015, dated 2020):
Residues, ends and D or L forms follow the SMILES beside them. *: point of attachment. Cbz = O=C(OCc1ccccc1)*

Tests used:
Type in all cases: cell-based, human
[1] = test system: caspase-1; test: Caspase-1 activity assay (FAM-YVAD-FMK, flow cytometry) in HAECs; settings: for oxLDL-induced caspase-1 activation with ROS inhibitors: Allopurinol 1 mmol/L, Apocynin 100 μM added 1 hour before oxLDL (100 μg/mL) 6 hours
Method: (§1) Active caspase-1 level was determined with APO LOGIX kit (Cell Tech., Mountain View, Calif.). The kit contains a carboxyfluorescein (FAM) [Excitation/Emission (nm):490/520]-labeled peptide fluoromethyl ketone (FMK) caspase-1 inhibitor (FAM-YVAD-FMK), which irreversibly binds to active caspase-1. All procedures were performed according to the manufacturer's instruction. Briefly, HAECs (≤passage 9) were cultured in 6-well plates and serum starved overnight to quiescent the cells before treatment. Next day, HAECs were treated with indicated stimuli for 6 hr. Cells were then digested by trypsin-EDTA and suspended at 1×10^6 cells/ml. 150 μl of cell suspension were incubated at 37° C. with 1× FAM-YVAD-FMK for 1 hour then washed with 1× washing buffer. Unfixed caspase-1 stained cells were then incubated with 7-aminoactinomycin D (7-AAD; cell membrane integrity marker) (BD Pharmingen, San Diego, Calif.) for no more than 10 min before analysis. The Calibur flow cytometer (BD Biosciences, San Jose, Calif.) was used to determine caspase-1 active (Caspase-1^+) and 7-AAD^+ cells. Data were analyzed with the FlowJo software (Tree Star, Ashland, Oreg.).
Active caspase-1 levels were determined with an APO LOGIX kit (Cell Technology, Mountain View, Calif.). The kit contained a carboxyfluorescein (FAM) (excitation/emission (nm): 490/520)-labeled peptide fluoromethyl ketone (FMK) caspase-1 inhibitor (FAM-YVAD-FMK), which irreversibly binds to active caspase-1. The procedures were performed according to the manufacturer's instructions. HAECs were cultured in 6-well dishes and serum-starved overnight to ensure quiescence of the cells before treatment. The next day, HAECs were treated with the indicated stimuli for 6 h. Cells were harvested and suspended at 1×10^6 cells/ml. The cell suspension (150 μl) was incubated in 37° C. with 1× FAM-YVAD-FMK for 1 h. After being washed with 1× washing buffer, the cells were fixed with fixative buffer and stored in 4° C. for up to 24 h. To determine the cell membrane integrity, the unfixed cells were stained with 7-AAD (Pharmingen) (0.25 μg/test) and incubated for no more than 10 min before analysis.
All flow cytometric data were analyzed by using the FlowJo software (Tree Star, Ashland, Oreg.). The uncompensated data were collected from the flow cytometer (either FACSCalibur flow cytometer or LSRII flow cytometer; BD Biosciences). Forward and side scatter gates were used to select live cell populations from clumps and debris. The positive gating was determined by its matched IgG control, and single staining was used to determine the compensation parameter. Different gates were established to analyze the data according to cell size as described in our figures.

[2] = test system: Sirt1; test: Sirt1 cleavage in oxLDL-treated HAECs by Western blot; settings: agent added 1 hour before oxLDL (100 μg/mL, 24 hours)
Description: FIG. 8, comprising FIG. 8A through FIG. 8C, depicts experimental results showing hyperlipidemia/dyslipidemia decreases sirtuin 1 (Sirt1) expression in ApoE^−/− mouse aorta and induces Sirt1 cleavage in human aortic endothelial cells (ECs) through caspase-1 (casp-1) activation. FIG. 8A depicts Casp-1 deficiency results in Sirt1 accumulation in mouse aorta in ApoE^−/−/Casp-1^−/− mice. ApoE^−/− mice and ApoE^−/−/Casp-1^−/− mice were fed with a high fat (HF) diet for 3 weeks. Mouse aortic tissues were collected for uncleaved Sirt1 protein expression analysis by Western blot with the specific antibody (left panel). The quantification of Sirt1 expression in the Western blot was presented after normalized with the expression of β-actin in the same sample (right panel). FIG. 8B depicts oxidized low-density lipoprotein (OxLDL) induces Sirt1 cleavage in human aortic endothelial cells (HAECs). HAECs were cultured and treated with oxLDL (100 μg/mL) for 24 hours. […] The protein lysates were collected, and cleaved-Sirt1 expression was determined by Western blot with anti-Sirt1 antibody. The relative changes of Sirt1 expression normalized by β-actin (ratios) were calculated based on the ratios of Sirt1 expression levels in treated samples over that in nontreated samples. […]

[3] = test system: alpha actin and calponin RNA transcripts in HAVSMCs; test: Contractile marker RNA in HAVSMCs exposed to uremic serum (quantitative RT-PCR); settings: HAVSMC, 10% pooled CKD sera 24 hours, compared to non-treated controls
Method: FIG. 29 depicts experimental results showing the exposure of human aortic vascular smooth muscle cells (HAVSMCs) to uremic serum decreases the expression of contractile marker RNA transcripts, which is reversed by the inhibition of caspase-1. HAVSMCs were grown to sub-confluence and were serum starved for 24 hours and exposed to 10% pooled uremic sera from CKD patients (CKD PS) with and without Caspase-1 Inhibitor (Casp1 inh) for another 24 hours. The RNA was extracted, was reverse transcribed into cDNA, and the expression of smooth muscle contractile marker RNA transcripts (alpha actin and calponin) was measured by quantitative RT-PCR using the Applied Biosystems 7500, Taqman primers and probes. The relative quantification of gene RNA expression is presented after being normalized with the expression of a house-keeping gene. *P value<0.005.
Blood samples were obtained from 6 healthy donors with normal kidney function and 20 patients with end stage renal disease who were on hemodialysis. […]
Total RNA from cultured cells was extracted using the RNeasy kit (Qiagen, Valencia, Calif.), and cDNA was synthesized with the VILO first-strand synthesis system (Invitrogen, Grand Island, N.Y.). […] Relative gene expression levels were calculated after normalization with the internal control eukaryotic 18S gene using the 2^−deltadeltaCt method, where Ct is the threshold value.

[4] = test system: HAECs; test: Caspase-1/7-AAD co-staining for pyroptosis in HAECs; settings: HAECs, 6-hour stimulation; oxLDL 100 μg/mL, LPA 100 μM, LPC 15 μM
Method: FIG. 7, comprising FIG. 7A through FIG. 7D, depicts experimental results showing Oxidized low-density lipoprotein (oxLDL) and its components induce caspase-1 (casp-1) activation in human aortic endothelial cells (HAECs) via a reactive oxygen species (ROS)-mediated p-athway. FIG. 7A depicts pyroptotic cell death in HAECs caused by activation of casp-1 induced by oxLDL and its components. HAECs were cultured and treated with low-density lipoprotein (LDL; 100 μg/mL), oxLDL (100 μg/mL), oxLDL-derivatives lysophosphatidic acid (LPA, 100 μM), or lysophosphatidylcholine (LPC, 15 μM) as indicated for 6 hours. Casp-1 activity was determined by a commercial kit, and 7-aminoactinomycin D (7-AAD) fluorescence dye was used to determine the cell membrane integrity. Casp-1^+/7-AAD^+ cells were gated as pyrototic cells (Q3), casp-1^+ single positive cells (Q2) were gated as inflammatory cells, and 7-AAD^+ single positive cells (Q4) were gated as necrotic cells. FIG. 7B depicts ROS levels in pyroptotic cells. ROS levels were determined by dihydroethidium (DHE) fluorescence dye staining, and the mean fluorescence intensity (MFI) of DHE^+ cell fraction was determined. […] Allopurinol (1 mmol/L) and Apocynin (100 μM) were added 1 hour before oxLDL treatment. HAECs were then treated with oxLDL (100 μg/mL) for 6 hours and stained for caspase-1 activity. FIG. 7D depicts mRNA upregulation of inflammasome components, including NLRP1 (Nod-like receptor protein 1), NLRP3 (Nod-like receptor 3), PYCARD (or ASC, inflammasome adaptor apoptosis-associated speck-like protein containing a CARD), caspase-1, and IL-1β (interleukin-1β) in HAECs treated with oxLDL. Data are expressed as mean±SE. *P<0.05, changes with statistical significance.
as §1
Active caspase-1 levels were determined with an APO LOGIX kit (Cell Technology, Mountain View, Calif.). The kit contained a carboxyfluorescein (FAM) (excitation/emission (nm): 490/520)-labeled peptide fluoromethyl ketone (FMK) caspase-1 inhibitor (FAM-YVAD-FMK), which irreversibly binds to active caspase-1. The procedures were performed according to the manufacturer's instructions. HAECs were cultured in 6-well dishes and serum-starved overnight to ensure quiescence of the cells before treatment. The next day, HAECs were treated with the indicated stimuli for 6 h. Cells were harvested and suspended at 1×10^6 cells/ml. […]

In the case of `Oc1ncnc2[nH]ncc12` [Allopurinol], the “oxLDL-induced caspase-1 activation with ROS inhibitors” value [1] is reported as “attenuation of oxLDL-induced caspase-1 activation”.
In the case of `COc1cc(C(C)=O)ccc1O` [Apocynin], the “oxLDL-induced caspase-1 activation with ROS inhibitors” value [1] is reported as “attenuation of oxLDL-induced caspase-1 activation”.
In the case of `CC(C)C[C@@H](C=O)NC(=O)[C@H](CC(C)C)NC(=O)[C@H](CC(C)C)NC(=O)OCc1ccccc1` [MG-132] (Cbz-Leu-Leu-Leu-aldehyde), the “oxLDL-induced Sirt1 cleavage with inhibitor” value [2] is reported as “inhibited”.
For `CC(C)c1cc(/C=C(\C#N)C(=O)NCCCc2ccccc2)cc(C(C)C)c1O` [SU1498], the “caspase-1 activation after VEGFR-2 inhibition” value ([1]; HAECs pretreated with SU1498, then LPC (30 μM) 6 h after overnight serum starvation) was “increases caspase-1 activation”.
`COC(=O)C[C@H](NC(=O)[C@H](C)NC(=O)[C@@H](NC(=O)[C@H](Cc1ccc(O)cc1)NC(=O)OCc1ccccc1)C(C)C)C(=O)CF` [Z-YVAD-FMK] was tested, and the “relative quantification of alpha-actin RNA” value [3] was 0.588 and the “relative quantification of calponin RNA” value [3] was 0.601.
For “RQIKIWFQNRRMKWKKGYRDNLLFGAEIITNGFHSC (N-terminal protein transduction sequence; listed as Homo sapiens) [NC-Sirt1]”, the “oxLDL-induced Sirt1 cleavage with inhibitor” value [2] was “dose-dependently decreases”.
With mono-acylsn-glycero-3-phosphate [LPA] the “caspase-1 activation in larger size of HAECs” value ([1]; 6 h, oxLDL (100 μM), LPA (30 μM), LPC (30 μM), large FSC gate) was 54.4%, the “caspase-1 activation in smaller size of HAECs” value ([1]; 6 h, oxLDL (100 μM), LPA (30 μM), LPC (30 μM), small FSC gate) was 25.2% and the “induction of inflammation, pyroptosis and necrosis (caspase-1/7-AAD gating)” value [4] was “induced inflammation, inflammatory cell death (pyroptosis), and necrosis”.
